We go through two molecules from patent publication US9814720B2, “Compositions and methods of inhibiting IL-17 expression of neutrophils” (priority 2014, dated 2017).

Assay [1] deals with IL-17A. Briefly: IL-17A expression in IL-6/23-stimulated murine bone marrow neutrophils (qPCR, ELISA, intracellular flow cytometry). It counts as cell-based, C57BL/6 mice. As to conditions: discussion restatement, species not stated. The source says:
Total bone marrow-derived cells were isolated from mouse femurs and tibias by flushing with RPMI and an 18-gauge needle. Erythrocytes were lysed with 1× lysis buffer (eBioscience), and bone marrow cells were separated on a Percoll (Fisher) gradient by density centrifugation (52%, 69%, and 78%). Cells at the 69-78% interface were harvested, and neutrophil purity (>98%) confirmed by flow cytometry and Wright-Giemsa staining. IL-17A protein production was quantified by 2-site ELISA, according to the manufacturer's directions (R&D Biosciences). Murine or human neutrophils were suspended at a density of 10^6 cells/ml and incubated with […] of recombinant mouse or human IL-6 and 2 μg/ml IL-23 in RPMI, and the cells were maintained for 1-3 h at 37° C. in 5% CO2. Various inhibitors were used for assessing STAT3 activation. […] For the determination of RORγt-dependent signaling, SR1001 (20 μM; Sigma) was used, which inhibits RORγt binding to the IL-17 promoter site. All inhibitors were added to neutrophils 2 h prior to recombinant IL-6 and IL-23 stimulation. […] Ten corneas were pooled and analyzed by intracellular flow cytometry. […] Cells were analyzed using a C6 Accuri flow cytometer (BD). […] The SYBR green system (Applied Biosystems, Carlsbad, Calif.) was utilized for quantitative PCR (qPCR) using ABI Biosystems. […]

The subject of assay [2] is IL-17RC. The assay is described as follows: IL-17RC gene expression by qPCR in IL-6/23-stimulated murine neutrophils. It counts as cell-based. As to conditions: IL-6/23 1 h, FIG. 6A. From the text: Total bone marrow-derived cells were isolated from mouse femurs and tibias by flushing with RPMI and an 18-gauge needle. Erythrocytes were lysed with 1× lysis buffer (eBioscience), and bone marrow cells were separated on a Percoll (Fisher) gradient by density centrifugation (52%, 69%, and 78%). Cells at the 69-78% interface were harvested, and neutrophil purity (>98%) confirmed by flow cytometry and Wright-Giemsa staining.
(§1) Murine or human neutrophils were suspended at a density of 10^6 cells/ml and incubated with […] of recombinant mouse or human IL-6 and 2 μg/ml IL-23 in RPMI, and the cells were maintained for 1-3 h at 37° C. in 5% CO2. Various inhibitors were used for assessing STAT3 activation. For STAT3, neutrophils were treated with either the STAT3-SH2 inhibitor, Stattic (20 μM) obtained from Tocris, or the JAK-1, 2 inhibitor, INC424, (aka Ruxolitinib; 20 μM (Selleck BioChem)). For the determination of RORγt-dependent signaling, SR1001 (20 μM; Sigma) was used, which inhibits RORγt binding to the IL-17 promoter site. All inhibitors were added to neutrophils 2 h prior to recombinant IL-6 and IL-23 stimulation.
(§2) Neutrophil and corneal cell RNA was extracted using the RNeasy mini kit according to the manufacturer's directions (Qiagen, Valencia, Calif.). The quality of RNA was checked by spectrophotometry, and only samples with a 260/280 ratio of 2.0 were used to generate cDNA. The SuperScript First Strand synthesis system (Invitrogen) was used to generate cDNA according to the manufacturer's directions.
(§3) The SYBR green system (Applied Biosystems, Carlsbad, Calif.) was utilized for quantitative PCR (qPCR) using ABI Biosystems. PCR products were then run on a 1% agarose gel, and visualized using ethidium bromide. PCR products were compared to Actb (encoding the β-actin gene) or GAPDH as the controls for gel loading.

Assay [3] deals with IL-17RC. Briefly: IL-17RC gene expression by qPCR in IL-6/23-stimulated human neutrophils. It is filed as cell-based. As to conditions: IL-6/23 1 h, FIG. 6B. How it is done: Neutrophils were isolated from peripheral blood of healthy donors. Peripheral blood was incubated in 3% Dextran, and neutrophils isolated by Ficoll gradient centrifugation (Fisher Scientific), with neutrophil purity determined by staining with Wright-Giemsa.
as §1, §2, §3

In assay [4] the test system is bone marrow-derived murine neutrophils. Briefly: ROS production (CFDA) by murine bone marrow neutrophils incubated with Aspergillus hyphae. It is filed as cell-based, C57BL/6 mice. As to conditions: IL-6/23-stimulated, inhibitor 20 μM, FIG. 6C. How it is done:
(§4) Murine and human neutrophils were incubated with p-STAT3 (20 μM Stattic or 20 μM INC424) or RORγt inhibitors (20 μM SR1001) for 2 h. Then the cells were stimulated with […] of rIL-6 and 2 μg/ml of rIL-23 for 3 h, washed, and 2×10^5 bone marrow-derived murine neutrophils or 10^5 human peripheral blood neutrophils, with or without recombinant IL-17A, were added to each well with growing hyphae. RPMI media was used as positive control (unimpaired growth), and PBS was used as a negative control (no growth (data not shown)). After 16 h the wells were washed with PBS and the dsRed fungal mass was quantified in a 96-well fluorometer at 550/600 nm excitation/emission filter (Synergy HT, Biotek).
(§5) In vitro ROS production measured by CFDA was previously described. Briefly, 100 μg/100 μl of A. fumigatus hyphal extract (AspHE) were incubated with 2×10^5 murine or human neutrophils. Neutrophils were treated for 1 h with 1 μM Carboxyfluorescein diacetate (H2CFDA (Sigma)), which will fluoresce following ROS oxidation. Neutrophils were collected and analyzed by flow cytometry. H2CFDA pulsed neutrophils that had not been incubated with AspHE were used to set the ROS histogram gate. The average mean intensity was calculated by Accuri flow software and graphed in Prism.

Assay [5] relates to human peripheral blood neutrophils. Briefly: ROS production (CFDA) by human peripheral blood neutrophils incubated with Aspergillus hyphae. It is filed as cell-based. As to conditions: IL-6/23-stimulated, inhibitor 20 μM, FIG. 6E. As for the experimental part: as §4, §5
In assay [6] the test system is A. fumigatus hyphae. The assay is described as follows: In vitro fungal killing assay (hyphal coincubation) with murine neutrophils. It is filed as cell-based, Aspergillus fumigatus. As to conditions: IL-6/23-stimulated, inhibitor 20 μM, FIG. 6D.
Description: (§6) Aspergillus strains—For cornea infections and in vitro fungal killing assays, an RFP expressing strain of A. fumigatus (Af-dsRed) was used. This strain is gpdA promoter driven to constitutively express monomeric dsRed. For subcutaneous “priming” injections, heat-killed, swollen conidia Aspergillus fumigatus strain Af-BP was used. For the Aspergillus hyphal extract used in ROS assay, A. fumigatus strain Af-BP hyphae were pulverized in liquid nitrogen, filtered through a 30 μm pre-separation filter (Miltenyi Biotec) and protein measured by the BCA method (Pierce). Aspergillus hyphal extracts (AspHE) were stored at −20° C. and used at a final concentration of 1 mg/ml.
(§7) A hyphal coincubation assay was used to study the ability of murine and human neutrophils to inhibit A. fumigatus hyphal growth as described. Briefly, 12,500 A. fumigatus dsRed expressing conidia (strain Af-dsRed) per 200 μl Sabouraud dextrose media were added to wells of black-walled 96 well plates with an optically clear bottom (CoStar 3720). After 6 h, the conidia had germinated and the hyphae became adherent to the wells, at which time the medium was removed.
as §4

Assay [7] deals with A. fumigatus hyphae. The assay is described as follows: In vitro fungal killing assay (hyphal coincubation) with human neutrophils. It is filed as cell-based, Aspergillus fumigatus. As to conditions: IL-6/23-stimulated, inhibitor 20 μM, FIG. 6F.
Description: as §6, §7, §4

With `CC(=O)Nc1nc(C)c(S(=O)(=O)Nc2ccc(C(O)(C(F)(F)F)C(F)(F)F)cc2)s1` [SR1001], in assay [1], the “IL-17 production in stimulated neutrophils” value was “ablated”. Besides, the IL-17RC expression entry in assay [2] and in assay [3] was “did not inhibit” in each case. In addition, the ROS production entry in assay [4] (plus rIL-17A) is recorded as “ROS production was increased”; in assay [4] (without rIL-17A), “not increased above the level produced by naïve neutrophils”; in assay [5] (plus rhIL-17A), “increased ROS”; in assay [5] (without rhIL-17A) it was “no increase in ROS”. Moreover, in assay [6] (plus rIL-17A), the hyphal killing activity result is reported as “enhanced hyphal killing activity was detected”. In addition, the “hyphal growth (fluorescent fungal mass)” value in assay [6] (without rIL-17A) was “did not further impede hyphal growth”. Also, the fluorescent fungal mass result was “decreased fungal mass” in assay [7] (plus rhIL-17A) and “no increase in ROS (FIG. 6E) or decrease in fluorescent fungal mass” in assay [7] (without rhIL-17A).
For `N#CC[C@H](C1CCCC1)n1cc(-c2ncnc3[nH]ccc23)cn1` [INC424, Ruxolitinib], the IL-17RC expression result in assay [2] and in assay [3] was “did not inhibit” in each case.
